# Measurements reported in patent US20020072602A1, “Micronized mirtazapine” (priority 2000, published 2002).
# Entries after “also recorded” stand apart in the source; their conditions may differ.
# Key:
# [1] = cited from earlier work
# [2] = dissolution of mirtazapine before and after micronization; type: physicochemical; settings: compared to mirtazapine prior to micronization
# From the text: FIG. 1 is a graph of the dissolution data of mirtazapine before and after micronization. FIG. 2 is a graph of the percent of dissolved mirtazapine before and after micronization. FIG. 3 is a graph of showing the dissolution time and standard deviations of the dissolution results before and after micronization. […] This is valuable improvement provides for more accurate dosing of mirtazapine.
SMILES,solubility in water [1],dissolution profile [2]
"CN1CCN2c3ncccc3Cc3ccccc3C2C1 (centres unmarked) [Mirtazapine, 1,2,3,4,10,14b-hexahydro-2-methyl-pyrazino [2,1-a]pyrido[2,3-c][2] benzazepine]",essentially insoluble in water,
CN1CCN2c3ncccc3Cc3ccccc3C2C1 (centres unmarked) [micronized mirtazapine],,superior dissolution profile; also recorded: more stable and reproducible dissolution profile
